Patent publication US7183280B2, “Bicyclic imidazole derivatives, the preparation thereof and their use as pharmaceutical compositions” (Boehringer Ingelheim International GmbH, priority 2004, dated 2007)

The compounds below were run on rats (assay: Tolerability in rats after oral administration). Settings: oral administration of 10 mg/kg.
Assay type: in vivo

Compound | toxic side effects
CC#CCn1c(N2CCC[C@@H](N)C2)nc2c1c(=O)n(Cc1nc3ccccc3c(C)[n+]1[O-])c(=O)n2C [Example 1, 1-[(4-methyl-3-oxy-quinazolin-2-yl)methyl]-3-methyl-7-(2-butyn-1-yl)-8-((R)-3-amino-piperidin-1-yl)-xanthine] | no toxic side effects could be detected

What follows are compounds tested against T1, DPP-IV (Homo sapiens, UniProt P27487) (assay: DPP-IV assay with Caco-2 cell extract, AFC substrate, fluorescence). Settings: extract of human colon carcinoma cell line Caco-2 as DPP IV source; AFC substrate 100 μM; 60 minutes, ambient temperature; read-out: DPP IV inhibition IC50.
T1 construct: an extract of the human colon carcinoma cell line Caco-2 is used as the DPP IV source; endogenous in cells; host or cells: Caco-2 (human colon carcinoma), differentiated to induce DPP-IV expression; Nonidet-P40 solubilised extract
Assay type: biochemical
Procedure: The differentiation of the cells in order to induce the DPP-IV expression was carried out in accordance with the description by Reiher et al. in an article entitled “Increased expression of intestinal cell line Caco-2”, which appeared in Proc. Natl. Acad. Sci. Vol. 90, pp. 5757–5761 (1993). The cell extract was obtained from cells solubilised in a buffer (10 mM Tris HCl, 0.15 M NaCl, 0.04 t.i.u. aprotinin, 0.5% Nonidet-P40, pH 8.0) by centrifugation at 35,000 g for 30 minutes at 4° C. (to remove cell debris).
The DPP-IV assay was carried out as follows:
50 μl of substrate solution (AFC; AFC is amido-4-trifluoromethylcoumarin), final concentration 100 μM, were placed in black microtitre plates. 20 μl of assay buffer (final concentrations 50 mM Tris HCl pH 7.8, 50 mM NaCl, 1% DMSO) was pipetted in. The reaction was started by the addition of 30 μl of solubilised Caco-2 protein (final concentration 0.14 μg of protein per well). The test substances under investigation were typically added prediluted to 20 μl, while the volume of assay buffer was then reduced accordingly. The reaction was carried out at ambient temperature, the incubation period was 60 minutes. Then the fluorescence was measured in a Victor 1420 Multilabel Counter, with the excitation wavelength at 405 nm and the emission wavelength at 535 nm. Dummy values (corresponding to 0% activity) were obtained in mixtures with no Caco-2 protein (volume replaced by assay buffer), control values (corresponding to 100% activity) were obtained in mixtures without any added substance. The potency of the test substances in question, expressed as IC50 values, were calculated from dosage/activity curves consisting of 11 measured points in each case.

T1 sequence (P27487 whole entry): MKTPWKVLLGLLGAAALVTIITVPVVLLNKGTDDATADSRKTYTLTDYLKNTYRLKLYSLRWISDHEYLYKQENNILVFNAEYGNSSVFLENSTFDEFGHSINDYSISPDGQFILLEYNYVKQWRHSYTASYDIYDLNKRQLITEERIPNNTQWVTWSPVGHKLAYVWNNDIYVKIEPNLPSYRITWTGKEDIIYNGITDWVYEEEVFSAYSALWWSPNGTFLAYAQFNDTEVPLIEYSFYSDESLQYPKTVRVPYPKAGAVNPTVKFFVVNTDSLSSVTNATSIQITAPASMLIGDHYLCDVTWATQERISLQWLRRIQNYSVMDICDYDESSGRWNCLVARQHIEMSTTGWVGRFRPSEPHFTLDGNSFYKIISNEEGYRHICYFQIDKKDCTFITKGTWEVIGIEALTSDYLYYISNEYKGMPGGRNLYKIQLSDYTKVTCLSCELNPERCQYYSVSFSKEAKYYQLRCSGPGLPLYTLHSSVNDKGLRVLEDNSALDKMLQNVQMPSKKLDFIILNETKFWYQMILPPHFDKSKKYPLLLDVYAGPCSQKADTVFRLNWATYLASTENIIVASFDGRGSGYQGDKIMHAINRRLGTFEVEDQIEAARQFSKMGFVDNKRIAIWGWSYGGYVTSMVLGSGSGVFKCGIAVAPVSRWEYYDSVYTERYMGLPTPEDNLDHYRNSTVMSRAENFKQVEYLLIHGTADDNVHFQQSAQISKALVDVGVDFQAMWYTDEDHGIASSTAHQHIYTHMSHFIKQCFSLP

Compound | IC50
CC#CCn1c(N2CCC[C@@H](N)C2)nc2c1c(=O)n(Cc1c3ccccc3cc(C)[n+]1[O-])c(=O)n2C [1(2), 1-[(3-methyl-2-oxy-isoquinolin-1-yl)methyl]-3-methyl-7-(2-butyn-1-yl)-8-((R)-3-amino-piperidin-1-yl)-xanthine] | 4 nM
CC#CCn1c(N2CCC[C@@H](N)C2)nc2c1c(=O)n(Cc1c3ccccc3c3ccccc3[n+]1[O-])c(=O)n2C [1(3), 1-[(5-oxy-phenanthridin-6-yl)methyl]-3-methyl-7-(2-butyn-1-yl)-8-((R)-3-amino-piperidin-1-yl)-xanthine] | 6 nM
CC#CCn1c(N2CCC[C@@H](N)C2)nc2c1c(=O)n(Cc1nc3ccccc3c[n+]1[O-])c(=O)n2C [1(4), 1-[(3-oxy-quinazolin-2-yl)methyl]-3-methyl-7-(2-butyn-1-yl)-8-((R)-3-amino-piperidin-1-yl)-xanthine] | 2 nM
1-[(1-oxy-quinolin-2-yl)methyl]-3-methyl-7-(2-butyn-1-yl)-8-((R)-3-amino-piperidin-1-yl)-xanthine [1(1)] | 1 nM
CC#CCn1c(N2CCC[C@@H](N)C2)nc2c1c(=O)n(Cc1nc3ccccc3c(C)[n+]1[O-])c(=O)n2C [Example 1, 1-[(4-methyl-3-oxy-quinazolin-2-yl)methyl]-3-methyl-7-(2-butyn-1-yl)-8-((R)-3-amino-piperidin-1-yl)-xanthine] | 2 nM
